Source: patent publication US10098895B2, “Treatment of symptoms related to neurodegenerative disorders through pharmacological dermal activation of cranial nerves” (GLIA, LLC, priority 2016, dated 2018)
“Also recorded” adds a separate entry of the source.

What was measured:
[1] = test system: herpes ophthalmicus and herpes keratitis; test: Example 8: herpes ophthalmicus and herpes keratitis patient; format: in vivo, human; details: dronabinol 0.5 mg twice daily to both ears
Source text: A patient experienced an episode of herpes ophthalmicus and herpes keratitis in September 2003, resulting in thinning melt of the left cornea, loss of vision, inflammation, neuralgia, and a rash of blisters to the left forehead, upper nose, and temple with a subsequent full left-face palsy droop, which required multiple cosmetic surgical procedures to provide some symmetry to the face and partial closure to the eyelids of the left eye.
No corneal graft to the left eye could be attempted due to recurrent thinning of the full cornea and inflammation of the vasculature. The patient was treated with ophthalmic prednisolone, topical and systemic antivirals, topical antibiotics, bandage lens, punctal plugs, and over-the-counter artificial tears and gels. This treatment regimen was continued until January 2011 when the cornea thinned to probable melt-through, necessitating corneal patch surgery. Just prior to the surgery, the patient's vision was measured at 20/2000, or finger vision.
The patient started applying 1% progesterone to their forehead twice daily just before corneal patch surgery planned for January 2011. The dose of progesterone was approximately 1 mg per application.
In September 2014, corneal tissue had sufficiently epithelialized at the perimeter to attempt a corneal graft, which was successfully completed. Progesterone 1% was applied daily to the forehead post-surgery. Within 9 months vision was restored to best correct vision pinhole 20/50.
In February 2015, the patient's visual acuity decreased as a result of the rejection of cells at the lower part of the graft. Moderate central staining continued to persist in a band where eyelids could not close. Intraocular pressure (TOP) in the left eye rose to 22 mmHg. The patient was placed on a treatment regimen that included Prednisolone Forte 6× plus Restasis for rejection 2× daily and oral valacycovir, together with mechanically taping the eyelid closed at night.
In May 2016, the patient initiated a course of twice daily dronabinol treatment, 0.5 mg each dose, to both ears. Through July, stabilization was achieved, and all other medications were discontinued. […] Visual acuity improved to 20/40.

essential tremor = test: Example 7: essential tremor subject with contact lens discomfort; format: in vivo, human
Procedure: A person developed persistent right hand tremors of a kinetic (non-resting) type that has been continuous over the past 6 years. […] This condition had not worsened over time. […] Initially, their doctor thought that these symptoms were stress related and they have been taking 2.5 mg of escitalopram for over 6 years. […] The subject was not on hormone replacement therapy or any other medication.
Concomitantly, the subject suffered from uncomfortable eyes, with a sticky burning sensation and development of blurred vision after about 5-6 hours of contact lens wear. For the past 3 years, the subject was administered 1% progesterone gel (1 mg per day) by dermal application to the forehead once per night. The progesterone gel prolonged comfortable contact lens wear time with sustained visual acuity from 5-6 hours to greater than 15 hours. […] After 2 years of treatment, the benefits of progesterone dermal application persisted for at least 3 days without treatment. There was no effect of the progesterone on their tremor symptoms.
After allowing for washout of progesterone for 3 days, they began forehead application of 0.5-0.75 mg dronabinol once daily at night.
The dronabinol administration regimen was altered by dividing equally the once daily dose of 0.5-0.75 mg dronabinol between the conchae of the left ear, the conchae of the right ear, and the forehead. […] Comfortable contact lens wear, with ease of insertion and removal, and visual acuity extends for 15 hours or more after dronabinol application.
Contact lens comfort wear duration was greater than 15 hours.
In April 2017, the subject, while still being treated with 1% progesterone applied to the forehead, instituted a once-daily low dose topical testosterone applied to the forehead and ear conchae to determine if doing so would produce a beneficial impact on further tremor reduction and in particular essential tremor triggered by caffeine consumption. […] They stopped the treatment to assess whether the tremor would return to pre-testosterone treatment levels. As of August 2017, the subject is without noticeable tremor. The caffeine trigger for tremor onset, which had been recognized throughout all treatments, has not re-appeared since the completion of the 4-week testosterone treatment. The subject continues on low-dose progesterone 1% applied daily to the forehead as the only treatment.

[2] = test system: Parkinson's disease symptoms; test: Example 1: Parkinson's disease patient, dermal application to forehead and ear conchae
Procedure: A person was diagnosed with the early stages of Parkinson's disease in December of 2014. Their symptoms included tremors in the hands, impaired short term memory, slow and uncontrolled rigid movements while walking and eating, and declining ocular blink function. The patient also had dry eyes with hyper-tearing, burning, and itching.
The patient was also treated with progesterone 1% on the forehead initially once daily beginning in March 2015. […] The progesterone was applied as needed for about a year.
Instead of the prescribed regimen, the patient began dermal application of dronabinol 1.25 mg 2 times daily to three sites: (i) the forehead, (ii) the concha of the left ear, and (iii) the concha of the right ear. Each dose of 1.25 mg was divided equally between the three application sites. This treatment regimen began Friday Jun. 10, 2016 concurrent with the discontinuation of rasagiline.
In February 2017, the patient, who suffers from debilitating moderate spinal stenosis, started taking Azilect (rasagiline) and carbidopa-levodopa to improve their walking and flexibility. […] The patient decided that, together with the prescribed medications, they would switch from dronabinol to topical testosterone gel applied to the forehead and ear conchae to see if this would impact their longstanding low testosterone levels.
In March 2017, topical testosterone gel application was instituted as an adjunct to is the prescribed Azilect and carbidopa-levodopa.
The patient voluntarily stopped topical testosterone for 3 weeks in June 2017. […] At the end of 3 weeks, topical testosterone was re-instituted as an adjunct to the prescribed medications.

herpes facial palsy = test: Example 9: functional facial motor control in herpes facial palsy; format: in vivo, human
Source text: A person had unilateral facial unilateral palsy stemming from 2003 herpes ophthalmicus and herpes keratitis. The left eye lids were unable to close to cover the central cornea without a forceful blink; neither were the lids able to open with the upper lid sagging and without elasticity or muscle control. This static condition was the baseline since the end of 2003 to May 2016, or nearly 13 years.
The left side of the face drooped, the left corner of the mouth drooled, and a noticeable asymmetry presented at rest. The upper lip could only slightly reveal the lowest pat of the upper teeth on the right side. There was minimal functional motor control of facial expression including upper lip. left side brow, eye lids, cheeks to mouth and chin lacked elasticity and functional motor control, leaving face fixed, expressionless, and asymmetrical.
The facial skin sagged as did the eye lids. […] His upper lip was partially frozen on the left side, and drooling was persistent. Lip and mouth expression as in smile was severely restricted.
Beginning in mid-May 2016, the patient began treatment twice daily with dronabinol 2.5 mg in oil, one-third of which was applied equally to the concha of the left ear, to the conchae of the right ear, and to the forehead.

[3] = dronabinol 1.25 mg 2 times daily, forehead and both conchae, two weeks, no other medications
[4] = dronabinol 2.5 mg in oil twice daily divided between both conchae and forehead, 3 months

SMILES: CCCCCc1cc(O)c2c(c1)OC(C)(C)[C@@H]1CCC(C)=C[C@@H]21 [dronabinol, (6aR,10aR)-6a,7,8,10a-tetrahydro-6,6,9-trimethyl-3-pentyl-6H-dibenzo[b,d]-pyran-1-ol]
- corneal staining ([1]; May through July 2016): improve somewhat, but still moderate
- graft rejected cells ([1]; May through July 2016): the number of rejected cells became fewer
- visual acuity ([1]; May through July 2016): 20/40
- intraocular pressure (printed TOP) ([1]; May through July 2016, from 22 mmHg): 16 mmHg
- best corrected vision pinhole ([1]; beginning of August): 20/25
- blink interval ([1]; beginning of August): approximately 24 second
- corneal staining ([1]; beginning of August): staining improved to superficial
- intraocular pressure (printed TOP) in both eyes ([1]; beginning of August): 18
- rejection cells ([1]; beginning of August): no sign of rejection cells
- Keratograph 5M non-invasive tear film break times (NIKBUTs) level ([1]; beginning of August, 0 = best): 0
- comfortable contact lens wear duration (essential tremor; 0.5-0.75 mg dronabinol once daily divided between both conchae and forehead): ≥ 15 h
- hand tremor (essential tremor; 0.5-0.75 mg dronabinol once daily divided between both conchae and forehead, by the fourth day): hand tremor had noticeably reduced
- hand tremor (essential tremor; 0.5-0.75 mg dronabinol once daily to forehead only, 2 weeks): without impacting their symptoms of hand tremor
- reduction of essential tremor from pre-treatment levels, stable new baseline (essential tremor; after discontinuing dronabinol): about 50%
- ocular discomfort (essential tremor; dronabinol USP 0.5 mg to 0.75 mg in an oil formulation to the forehead, substituted for progesterone): the same benefits to ocular discomfort was obtained
- tremor amplitude after ceasing treatment (essential tremor; dronabinol ceased for 3 days, right hand): about 50 % of pre-treatment level
- reduction in essential tremor from pre-treatment baseline (essential tremor; during dronabinol treatment): 80%
- appetite (essential tremor; low dose topical dronabinol): unwanted increase in appetite
- stability of improvement ([2]; 3 months of dronabinol to conchae and forehead as sole Parkinson's medication): stable at the improved level
- speech, thought and social interaction ([2]; dronabinol 1.25 mg 2 times daily divided between forehead and concha of both ears, within three days, washing out of rasagiline): more fluid speech, less searching for words, fewer thought gaps
- bodily rigidity [2, 3]: significantly less bodily rigidity
- depression [2, 3]: depression resolved in the absence of antidepressants
- facial masking [2, 3]: decreased facial masking and more voluntary facial expressions; also recorded: decrease in facial masking
- hand tremors [2, 3]: markedly reduced hand tremors
- memory function [2, 3]: much improved memory function
- motor skills and coordination [2, 3]: motor skills and coordination improved
- postnasal drip, chest cough and asthmatic wheezing [2, 3]: persistent postnasal drip resolved, chest cough and asthmatic wheezing resolved
- dry eyes ([2]; dronabinol 1.25 mg 2 times daily, forehead and both conchae, within three days): dry eyes resolved with no need for artificial tears
- improvement of Parkinson's disease symptoms (motor, cognitive, emotional), reported by wife ([2]; dronabinol since Jun. 10, 2016 as sole medication, reported Jul. 27, 2016): 90%
- cognitive function and other non-motor symptoms during tapering-off ([2]; tapering-off of dronabinol, already on Azilect and carbidopa-levodopa): rapidly deteriorated
- adverse events ([2]; throughout low dose neural cranial treatment): no adverse events were noted
- facial droop and drool (herpes facial palsy; 3 months of dronabinol application to the ear conchae): droop ad drool significantly resolved
- recurrence of facial palsy (herpes facial palsy; after dronabinol was discontinued in August 2016): no recurrence of facial palsy
- best corrected vision with pinhole (herpes facial palsy; [4]): 20/25
- conjunctival redness (herpes facial palsy; [4]): improved significantly
- control over facial expression muscles (herpes facial palsy; [4]): regained control over facial expression muscles
- early graft rejection (herpes facial palsy; [4]): reversed
- eye lid motor control (herpes facial palsy; [4]): more motor control over both eye lids
- persistent central corneal staining (herpes facial palsy; [4]): resolved to a significant degree
- tear film breakup time level by Keratograph 5M (herpes facial palsy; dronabinol 2.5 mg in oil twice daily divided between both conchae and forehead, 3 months, 0 = best): 0
